From patent US12180187B2, “1-phenyl-5-azinylpyrazolyl-3-oxyalkyl acids and their use for controlling unwanted plant growth” (BAYER AKTIENGESELLSCHAFT, priority 2019, dated 2024)

How the values were obtained:
POAAN [1] = assay: Pre-emergence action against POAAN, 1280 g/ha; type: in vivo, Poa annua; conditions: visual scoring after about 3 weeks vs untreated controls, 100% = plants have died, 0% = like control plants
Procedure, shortened: (§1)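 Visual percent-effect ratings (0% = like control, 100% = plants dead) were taken about 3 weeks after pre-emergence soil-surface application of WP/EC aqueous formulations with 0.5% additive, 600 L water/ha. Seeds were sown in sandy loam and grown in the greenhouse.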

AMARE [2] = assay: Pre-emergence action at 320 g/ha against AMARE; type: in vivo, Amaranthus retroflexus; conditions: visual scoring after about 3 weeks vs untreated controls
Procedure, shortened: (§2)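 Compounds were sprayed onto soil over sown seeds as emulsions or suspensions with 0.5% additive at a water rate of 600 l/ha. After about 3 weeks in the greenhouse, effect was rated visually as percent (100% = died).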

MATIN [3] = assay: Pre-emergence action against MATIN, 1280 g/ha; type: in vivo, Tripleurospermum inodorum (Matricaria inodora); conditions: scored visually after about 3 weeks vs untreated controls (100% = plants have died)
Procedure, shortened: as §1

POAAN [4] = assay: Post-emergence action against POAAN, 1.28 kg/ha; type: in vivo, Poa annua; conditions: dosage 1280 g/ha, visual rating about 3 weeks after treatment vs untreated controls
Procedure, shortened: (§3)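 Greenhouse-grown weeds (sandy loam, twin-sown pots) were treated 2–3 weeks post-sowing at one leaf. The spray was an aqueous WP/EC preparation plus 0.5% additive, applied at 600 L/ha. Scoring was visual at ~3 weeks, 0–100% versus untreated controls.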

VERPE [5] = assay: Post-emergence action against VERPE, 1.28 kg/ha; type: in vivo, Veronica persica; conditions: dosage 1280 g/ha, visual rating about 3 weeks after treatment vs untreated controls (100% = plants died)
Procedure, shortened: as §3

VIOTR [6] = assay: Pre-emergence action at 320 g/ha against VIOTR; type: in vivo, Viola tricolor; conditions: dosage 320 g/ha
Procedure, shortened: as §2

ABUTH = assay: Post-emergence action against ABUTH, 1.28 kg/ha; type: in vivo, Abutilon theophrasti; conditions: dosage 1280 g/ha, visual rating about 3 weeks after treatment vs untreated controls (100% = plants died)
Procedure, shortened: as §3

HORMU = assay: Post-emergence action at 320 g/ha against HORMU; type: in vivo, Hordeum murinum; conditions: visual rating about 3 weeks after treatment vs untreated controls
From the text: (§4) Accordingly, the compounds of the invention have good herbicidal action against a broad spectrum of weed grasses and broad-leaved weeds and are therefore suitable for controlling unwanted vegetation by the post-emergence method. • b) Seeds of monocotyledonous and dicotyledonous weeds and crop plants are placed in sandy loam in plastic or organic planting pots, covered with soil and cultivated in a greenhouse under controlled growth conditions. 2 to 3 weeks after sowing, the test plants are treated at the one-leaf stage. The compounds of the invention, formulated in the form of wettable powders (WP) or as emulsion concentrates (EC), are then sprayed onto the green parts of the plants as aqueous suspension or emulsion with addition of 0.5% additive at a water application rate of 600 l/ha (converted). After the test plants have been kept in the greenhouse under optimum growth conditions for about 3 weeks, the activity of the preparations is rated visually in comparison to untreated controls. For example, 100% activity=the plants have died, 0% activity=like control plants. Tables 39 to 49 below show the effects of selected compounds of the general formula (I) according to Tables 1 and 2 on various harmful plants and at an application rate corresponding to 320 g/ha, which were obtained by the experimental procedure mentioned above.

POLCO [7] = assay: Post-emergence action at 320 g/ha against POLCO; type: in vivo, Fallopia convolvulus (Polygonum convolvulus); conditions: visual rating about 3 weeks after treatment vs untreated controls
Procedure, shortened: (§5)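 Greenhouse-grown plants sprayed post-emergence at the one-leaf stage, 2 to 3 weeks after sowing, with WP or EC formulations plus 0.5% additive at 600 l/ha water, at 320 g/ha. Activity rated visually after about 3 weeks versus untreated controls (100% = plants died, 0% = like control).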

STEME [8] = assay: Post-emergence action against STEME, 1.28 kg/ha; type: in vivo, Stellaria media; conditions: dosage 1280 g/ha, visual rating about 3 weeks after treatment vs untreated controls (100% = plants died)
Procedure, shortened: as §3

DIGSA [9] = assay: Pre-emergence action against DIGSA, 1280 g/ha; type: in vivo, Digitaria sanguinalis; conditions: visual scoring after about 3 weeks vs untreated controls, 100% = plants have died, 0% = like control plants
Procedure, shortened: as §1

SETVI [10] = assay: Post-emergence action against SETVI, 1.28 kg/ha; type: in vivo, Setaria viridis; conditions: dosage 1280 g/ha, visual rating about 3 weeks after treatment vs untreated controls
Procedure, shortened: as §3

STEME [11] = assay: Pre-emergence action against STEME, 1280 g/ha; type: in vivo, Stellaria media; conditions: scored visually after about 3 weeks vs untreated controls (100% = plants have died)
Procedure, shortened: as §1

LOLRI [12] = assay: Pre-emergence action against LOLRI, 1280 g/ha; type: in vivo, Lolium rigidum; conditions: visual scoring after about 3 weeks vs untreated controls, 100% = plants have died, 0% = like control plants
Procedure, shortened: as §1

STEME [13] = assay: Pre-emergence action at 320 g/ha against STEME; type: in vivo, Stellaria media; conditions: greenhouse, scored visually after about 3 weeks vs untreated controls, 100% = plants have died, 0% = like control plants
From the text: b) Seeds of monocotyledonous and dicotyledonous weed plants and crop plants are placed in plastic or organic planting pots and covered with soil. The compounds of the invention, formulated in the form of wettable powders (WP) or as emulsion concentrates (EC), are then applied onto the surface of the covering soil as aqueous suspension or emulsion with addition of 0.5% additive at a water application rate of 600 l/ha (converted). After the treatment, the pots are placed in a greenhouse and kept under good growth conditions for the trial plants. After about 3 weeks, the effect of the preparations is scored visually in comparison with untreated controls as percentages. For example, 100% activity=the plants have died, 0% activity=like control plants. Tables 13 to 26 below show the effects of selected compounds of the general formula (I) on various harmful plants and at an application rate corresponding to 320 g/ha, which were obtained by the experimental procedure mentioned above.

AVEFA = assay: Post-emergence action at 320 g/ha against AVEFA; type: in vivo; conditions: visual rating about 3 weeks after treatment vs untreated controls
Procedure, shortened: as §5

POLCO [14] = assay: Pre-emergence action at 320 g/ha against POLCO; type: in vivo, Fallopia convolvulus (Polygonum convolvulus); conditions: visual scoring after about 3 weeks vs untreated controls
Procedure, shortened: as §2

AMARE [15] = assay: Post-emergence action against AMARE, 1.28 kg/ha; type: in vivo, Amaranthus retroflexus; conditions: dosage 1280 g/ha, visual rating about 3 weeks after treatment vs untreated controls (100% = plants died)
Procedure, shortened: as §3

VIOTR [16] = assay: Post-emergence action at 320 g/ha against VIOTR; type: in vivo, Viola tricolor; conditions: visual rating about 3 weeks after treatment vs untreated controls
From the text: as §4

SETVI [17] = assay: Post-emergence action at 320 g/ha against SETVI; type: in vivo, Setaria viridis; conditions: visual rating about 3 weeks after treatment vs untreated controls
Procedure, shortened: as §5

LOLRI [18] = assay: Post-emergence action against LOLRI, 1.28 kg/ha; type: in vivo, Lolium rigidum; conditions: dosage 1280 g/ha, visual rating about 3 weeks after treatment vs untreated controls
Procedure, shortened: as §3

DIGSA [19] = assay: Post-emergence action against DIGSA, 1.28 kg/ha; type: in vivo, Digitaria sanguinalis; conditions: dosage 1280 g/ha, visual rating about 3 weeks after treatment vs untreated controls
Procedure, shortened: as §3

MATIN [20] = assay: Post-emergence action against MATIN, 1.28 kg/ha; type: in vivo, Tripleurospermum inodorum (Matricaria inodora); conditions: dosage 1280 g/ha, visual rating about 3 weeks after treatment vs untreated controls (100% = plants died)
Procedure, shortened: as §3

ECHCG = assay: Pre-emergence action against ECHCG, 1280 g/ha; type: in vivo, Echinochloa crus-galli; conditions: visual scoring after about 3 weeks vs untreated controls, 100% = plants have died, 0% = like control plants
Procedure, shortened: as §1

AMARE [21] = assay: Pre-emergence action against AMARE, 1280 g/ha; type: in vivo, Amaranthus retroflexus; conditions: scored visually after about 3 weeks vs untreated controls (100% = plants have died)
Procedure, shortened: as §1

SETVI [22] = assay: Pre-emergence action against SETVI, 1280 g/ha; type: in vivo, Setaria viridis; conditions: visual scoring after about 3 weeks vs untreated controls, 100% = plants have died, 0% = like control plants
Procedure, shortened: as §1

DIGSA [23] = assay: Pre-emergence action at 320 g/ha against DIGSA; type: in vivo, Digitaria sanguinalis; conditions: visual scoring after about 3 weeks vs untreated controls
Procedure, shortened: as §2

SETVI [24] = assay: Pre-emergence action at 320 g/ha against SETVI; type: in vivo, Setaria viridis; conditions: visual scoring after about 3 weeks vs untreated controls
Procedure, shortened: as §2

ALOMY = assay: Post-emergence action against ALOMY, 320 g/ha; type: in vivo, Alopecurus myosuroides; conditions: dosage 320 g/ha, visual rating about 3 weeks after treatment vs untreated controls (100% = plants died)
Procedure, shortened: as §5

VERPE [25] = assay: Pre-emergence action against VERPE, 1280 g/ha; type: in vivo, Veronica persica; conditions: scored visually after about 3 weeks vs untreated controls (100% = plants have died)
Procedure, shortened: as §1

## COC(=O)C(C)Oc1nn(-c2ccccc2)c(-c2ccnc(Cl)c2)c1Cl (stereo not drawn) [VIII-001]
POAAN [1]
  Pre-emergence action against POAAN: 100%
AMARE [2]
  Pre-emergence action against AMARE in %: 90%
MATIN [3]
  Pre-emergence action against MATIN: 90%
POAAN [4]
  Post-emergence action against POAAN: 100%
VERPE [5]
  Post-emergence action against VERPE: 100%
VIOTR [6]
  Pre-emergence action against VIOTR in %: 90%
ABUTH
  Post-emergence action against ABUTH: 90%
HORMU
  Post-emergence action against HORMU in %: 80%
POLCO [7]
  Post-emergence action against POLCO in %: 90%
STEME [8]
  Post-emergence action against STEME: 100%
DIGSA [9]
  Pre-emergence action against DIGSA: 90%
SETVI [10]
  Post-emergence action against SETVI: 90%
STEME [11]
  Pre-emergence action against STEME: 90%
LOLRI [12]
  Pre-emergence action against LOLRI: 100%
STEME [13]
  Pre-emergence action at 320 g/ha against STEME in %: 90%
AVEFA
  Post-emergence action against AVEFA in %: 80%
POLCO [14]
  Pre-emergence action against POLCO in %: 90%
AMARE [15]
  Post-emergence action against AMARE: 90%
VIOTR [16]
  Post-emergence action against VIOTR in %: 80%
SETVI [17]
  Post-emergence action against SETVI in %: 80%
LOLRI [18]
  Post-emergence action against LOLRI: 90%
DIGSA [19]
  Post-emergence action against DIGSA: 90%
MATIN [20]
  Post-emergence action against MATIN: 90%
ECHCG
  Pre-emergence action against ECHCG: 100%
AMARE [21]
  Pre-emergence action against AMARE: 90%
SETVI [22]
  Pre-emergence action against SETVI: 100%
DIGSA [23]
  Pre-emergence action against DIGSA in %: 100%
SETVI [24]
  Pre-emergence action against SETVI in %: 100%
ALOMY
  Post-emergence action against ALOMY: 90%
VERPE [25]
  Pre-emergence action against VERPE: 100%
